The values below are quoted from earlier work in patent US6559138B1, “3-Desoxy-vitamin D3 analog esters” (Syntex (U.S.A.) LLC, priority 2001, dated 2003).

For data set [1], the system named is women with postmenopausal osteoporosis.
In data set [2] the test system is steroid-induced bone loss. As to conditions: calcitriol 0.5 to 1.0 micrograms/day plus calcium 1000 mg/day, with or without intranasal calcitonin 400 IU/day.

As for `C=C1/C(=C\C=C2/CCC[C@]3(C)[C@@H]([C@H](C)CCCC(C)(C)O)CC[C@@H]23)C[C@@H](O)C[C@@H]1O` [calcitriol, 1,25-dihydroxyvitamin D3], in data set [1] (at recommended dosages), the hypercalcaemia result was “infrequent and mild”. For the same compound, the “lower rate of new vertebral fractures compared with patients receiving elemental calcium 1000 mg/day” value in data set [1] (calcitriol 0.25 microgram twice daily, after 3 years of treatment, patients with mild to moderate disease) is recorded as 3 fold. The tolerability result in data set [1] (overall) is reported as “well tolerated”. The “effect on steroid-induced bone loss” value in data set [2] is listed as “prevented steroid-induced bone loss”.
